For 20 compounds, TGI and GI50 results are on record in PubChem BioAssay (NCI).

Some test systems named below: NCI-H23 lung; CAKI-1 renal; UACC-257 melanoma; SK-MEL-28 melanoma; OVCAR-3 ovarian; SNB-19 CNS; NCI-H522 lung; MOLT-4 leukemia; A498 renal.
What all share (experiment): NCI-60 cell line screen, 48 h

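Interpolation was linear, between the two tested concentrations surrounding the appropriate level; five concentrations were tested over 48 hours in 96-well plates. GI50: concentration for 50% inhibition of growth. TGI: total growth inhibition.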

In the case of `CC1=CC(N2C(=O)C(C)=CC2O)NC1=O` (centres undefined), the TGI in the assay with NCI-H23 lung, in the assay on CAKI-1 renal, in the assay with UACC-257 melanoma, with SK-MEL-28 melanoma, in the assay with OVCAR-3 ovarian and in the assay on SNB-19 CNS was over 100 µM throughout. Also, the TGI in the assay on NCI-H522 lung was over 100 µM.
As for `N/N=c1\c2ccccc2c2cc3c(cc12)/c(=N/N)c1ccccc13`, the TGI in the assay on NCI-H23 lung, in the assay on UACC-257 melanoma, with SK-MEL-28 melanoma, with SNB-19 CNS, in the assay on NCI-H522 lung and with MOLT-4 leukemia was over 100 µM in each case.
As for `Cc1ccc(NC(=O)/C(Cl)=C(/Cl)C(=O)O)cc1`, the TGI in the assay with NCI-H23 lung was 31.8 µM; in the assay with CAKI-1 renal, 31.1 µM; in the assay on UACC-257 melanoma, 44.2 µM; in the assay on SK-MEL-28 melanoma, 33 µM; in the assay with A498 renal, over 100 µM; in the assay with OVCAR-3 ovarian it was 32.4 µM. In addition, the figures for the TGI in the assay with SNB-19 CNS, with NCI-H522 lung and in the assay with MOLT-4 leukemia were over 100 µM, 6.11 µM and 43.5 µM, respectively.
On to `Cc1ccccc1-n1c2nc(=O)n(C)c(=O)c-2nc2ccccc21`, for which the TGI in the assay on NCI-H23 lung stood at 24.6 µM; with CAKI-1 renal, 48.9 µM; in the assay with UACC-257 melanoma, 21.4 µM; with A498 renal, 79.1 µM; with OVCAR-3 ovarian, 6.94 µM; in the assay on SNB-19 CNS, 28.8 µM. The TGI in the assay with NCI-H522 lung came out at 29.4 µM; with MOLT-4 leukemia, 39.7 µM.
As for `NCCNCc1c2ccccc2c(CNCCN)c2ccccc12`, the TGI in the assay with NCI-H23 lung was determined as 35.2 µM; in the assay with UACC-257 melanoma, 35.5 µM; in the assay with A498 renal it was 75.3 µM; in the assay on OVCAR-3 ovarian it was 70.8 µM; in the assay with NCI-H522 lung, 21.2 µM; in the assay on MOLT-4 leukemia, 30.9 µM.
With `COc1ccc2nc3cc(Cl)ccc3c(Sc3ccc([N+](=O)[O-])cc3)c2c1`, the GI50 with NCI-H23 lung, with CAKI-1 renal, with UACC-257 melanoma, in the assay on SK-MEL-28 melanoma, in the assay with A498 renal and in the assay with OVCAR-3 ovarian was over 100 µM throughout. For the same compound, the GI50 with SNB-19 CNS, in the assay with NCI-H522 lung and in the assay on MOLT-4 leukemia was over 100 µM in each case. Also, the TGI in the assay with NCI-H23 lung, in the assay on CAKI-1 renal, in the assay with UACC-257 melanoma, with SK-MEL-28 melanoma, with A498 renal and with OVCAR-3 ovarian was over 100 µM in each case. In addition, the TGI in the assay with SNB-19 CNS, in the assay with NCI-H522 lung and with MOLT-4 leukemia was over 100 µM in each case.
Consider `CC(=O)NC1C(OCc2ccccc2)OC(COC(=O)CCCCCCCCCCNc2ccc([N+](=O)[O-])c3[nH]c4ccccc4c(=O)c23)C(O)C1OC(C)C(=O)NC(C)C(=O)NC(CCC(N)=O)C(=O)OCc1ccccc1` (centres undefined), for which the TGI in the assay with NCI-H23 lung, in the assay on CAKI-1 renal, in the assay on UACC-257 melanoma, in the assay on SK-MEL-28 melanoma, with A498 renal and in the assay on OVCAR-3 ovarian was over 100 µM in each case. The TGI with SNB-19 CNS, in the assay on NCI-H522 lung and with MOLT-4 leukemia was over 100 µM in each case.
`COC(=O)C1=C(C(=O)OC)C2(C)Nc3ccccc3C2=C(c2ccccc2)C1` (centres undefined): the TGI with NCI-H23 lung came to 45.7 µM; with UACC-257 melanoma, 39.7 µM; with SK-MEL-28 melanoma, 40.7 µM; in the assay on OVCAR-3 ovarian, 52.2 µM; in the assay on SNB-19 CNS, 75.5 µM; in the assay on NCI-H522 lung, 35.9 µM. Besides, the TGI with MOLT-4 leukemia worked out at 29.6 µM.
As for `c1ccc2c(c1)N=C(c1cccc3ccccc13)CC(c1ccc3c(c1)OCO3)S2` (centres undefined), the TGI with NCI-H23 lung, with CAKI-1 renal, in the assay with UACC-257 melanoma, with A498 renal, in the assay on OVCAR-3 ovarian and in the assay on SNB-19 CNS was over 100 µM throughout. Moreover, the TGI in the assay on NCI-H522 lung and in the assay with MOLT-4 leukemia was over 100 µM throughout.
Take `CC(C)NC(=O)CCN(C(=O)O)S(=O)(=O)c1ccc(NC(=O)c2ccccc2)cc1`: the TGI in the assay on NCI-H23 lung is over 100 µM; with CAKI-1 renal it was over 100 µM; in the assay on UACC-257 melanoma, over 79.3 µM; in the assay with SK-MEL-28 melanoma, over 100 µM; in the assay with A498 renal, over 100 µM; in the assay on OVCAR-3 ovarian it was over 100 µM. Moreover, the TGI with SNB-19 CNS is over 100 µM; with NCI-H522 lung, over 100 µM; with MOLT-4 leukemia, over 57.9 µM.
Consider `CCCCCCCCCCCCCCCCC(=O)O.CCCCCCCCCCCCCCCCCC(=O)O.CCCCCCCCCCCCCCCCCC(=O)O.CCCCCCCCCCCCCCCCCC(=O)O.CCCCCCCCCCCCCCCCCC(=O)O.CO[CH-]OC12COC1CC(O)C1(C)C(O)C(OC(C)O)C3=C(C)C(OC(=O)C(O)C([NH-])c4ccccc4)CC(O)(C(OC(=O)c4ccccc4)C21)C3(C)C.[Cu+].[Zn].[Zn].[Zn].[Zn].[Zn]` (centres undefined), for which the GI50 is 0.0115 µM with NCI-H23 lung; 0.0513 µM with CAKI-1 renal; 3.91 µM with UACC-257 melanoma; 4.68 µM in the assay on SK-MEL-28 melanoma; under 0.0025 µM in the assay on A498 renal; 0.00747 µM in the assay with OVCAR-3 ovarian. The GI50 in the assay with SNB-19 CNS was 0.0105 µM; in the assay on NCI-H522 lung, 0.0103 µM; in the assay with MOLT-4 leukemia, 0.0104 µM. The TGI is over 14.5 µM in the assay on NCI-H23 lung; over 25 µM in the assay on CAKI-1 renal; over 25 µM in the assay with UACC-257 melanoma; 23.7 µM in the assay on SK-MEL-28 melanoma; 0.0187 µM in the assay on A498 renal; 0.388 µM with OVCAR-3 ovarian. The TGI in the assay with SNB-19 CNS is over 11.5 µM; in the assay on NCI-H522 lung, 6.07 µM; in the assay with MOLT-4 leukemia, over 18.5 µM.
On to `CN1CCN(C)C12C=CC=CC21CC1`, for which the TGI in the assay with NCI-H23 lung, with CAKI-1 renal, with UACC-257 melanoma, in the assay on A498 renal, in the assay on OVCAR-3 ovarian and in the assay on SNB-19 CNS was over 100 µM in each case. Also, the TGI in the assay with NCI-H522 lung and in the assay with MOLT-4 leukemia was over 100 µM each time.
Consider `CCNC(=O)O/N=C1\CCC2[C@@H]3CC=C4C[C@@H](OC5CCCCO5)CC[C@]4(C)C3CC[C@]12C` (some centres undefined), for which the TGI in the assay on NCI-H23 lung was 11.1 µM; in the assay on CAKI-1 renal it was 6.19 µM; in the assay on UACC-257 melanoma, 4.41 µM; in the assay with SK-MEL-28 melanoma it was 10.8 µM; with A498 renal, over 100 µM; with OVCAR-3 ovarian it was 10.7 µM. The figures for the TGI with SNB-19 CNS and in the assay with MOLT-4 leukemia were 9.94 µM and 3.87 µM, respectively.
As to `COc1ccccc1NC(=O)c1nc2ccc([N+](=O)[O-])cc2nc1C`, the TGI with NCI-H23 lung, in the assay with CAKI-1 renal, with UACC-257 melanoma, in the assay with SK-MEL-28 melanoma, in the assay with A498 renal and in the assay with OVCAR-3 ovarian was over 100 µM throughout. Moreover, the TGI in the assay with SNB-19 CNS, with NCI-H522 lung and in the assay with MOLT-4 leukemia was over 100 µM in each case.
Turning to `Cc1ccc(S(=O)OCC23CC4CC(CC(C4)C2)C3)cc1` (centres undefined), the TGI with NCI-H23 lung, in the assay on CAKI-1 renal, with UACC-257 melanoma, in the assay on SK-MEL-28 melanoma, in the assay with A498 renal and with OVCAR-3 ovarian was over 100 µM in each case. Further, the TGI in the assay on SNB-19 CNS, with NCI-H522 lung and in the assay with MOLT-4 leukemia was over 100 µM in each case.
As for `OCc1c[te]c(-c2ccccc2)c1`, the TGI in the assay with NCI-H23 lung is 62.8 µM; in the assay with CAKI-1 renal it was over 100 µM; in the assay with UACC-257 melanoma, over 100 µM; in the assay on SK-MEL-28 melanoma, over 100 µM; in the assay on A498 renal it was over 100 µM; in the assay on OVCAR-3 ovarian it was 30.2 µM. In the assay with MOLT-4 leukemia, this compound returned a TGI of over 100 µM.
For `CC#CC1C2CCCC1(CSc1ccccc1)NC(=O)O2` (centres undefined), the TGI in the assay on NCI-H23 lung, with CAKI-1 renal, in the assay on UACC-257 melanoma, in the assay on A498 renal, in the assay with OVCAR-3 ovarian and with SNB-19 CNS was over 100 µM each time. The TGI in the assay on NCI-H522 lung and in the assay on MOLT-4 leukemia was over 100 µM throughout.
In the case of `NCOC(=O)Cc1ccc(Br)cc1`, the TGI with NCI-H23 lung, with UACC-257 melanoma, in the assay on SK-MEL-28 melanoma, with A498 renal, with OVCAR-3 ovarian and with SNB-19 CNS was over 100 µM in each case. Also, the TGI with NCI-H522 lung and in the assay with MOLT-4 leukemia was over 100 µM in each case.
Turning to `O=C(/C(=C\c1ccc(Cl)cc1)c1ccccc1)c1ccccc1`, the TGI in the assay with NCI-H23 lung, with UACC-257 melanoma, in the assay on SK-MEL-28 melanoma, in the assay on A498 renal, in the assay on NCI-H522 lung and in the assay on MOLT-4 leukemia was over 100 µM throughout.
With `CC(=O)c1cc(C(=O)c2ccc3c(c2)Sc2ccccc2N3)c2cc(C)ccn12`, the GI50 with NCI-H23 lung was 0.237 µM; with CAKI-1 renal, 0.053 µM; with SK-MEL-28 melanoma, 6.79 µM; in the assay with A498 renal, 0.0431 µM; in the assay with OVCAR-3 ovarian, 0.0323 µM; with SNB-19 CNS, 0.183 µM. Further, the GI50 with NCI-H522 lung is 0.0412 µM; in the assay with MOLT-4 leukemia, 0.329 µM. In addition, the TGI in the assay with NCI-H23 lung was over 100 µM; in the assay on CAKI-1 renal, over 100 µM; in the assay on SK-MEL-28 melanoma it was over 100 µM; in the assay with A498 renal, over 100 µM; in the assay on OVCAR-3 ovarian, 0.112 µM; in the assay on SNB-19 CNS it was over 100 µM. Also, the TGI in the assay with NCI-H522 lung and in the assay on MOLT-4 leukemia was over 100 µM each time.
